The results in this text go back to US20070128217A1 (priority 2003, published 2007).

Experiment [1] deals with control sera (pooled serum of ten healthy LUMC hospital workers; commercial negative donor pooled serum from the Dutch bloodbank). The experiment is classed as binding, human. Also noted: Binding of Control serum LUMC to linear peptides / Binding of Control serum Blood-bank to linear peptides / Binding of Control serum LUMC to looped peptides / Binding of Control Serum Blood-Bank to Looped peptides / Binding of Control serum LUMC to linear peptides of the protein M of SARS-CoV Urbani / Binding of Control serum Blood-bank to linear peptides of the protein M of SARS-CoV Urbani / Binding of Control serum LUMC to looped peptides of the protein M of SARS-CoV Urbani / Binding of Control Serum Blood-Bank to Looped peptides of the protein M of SARS-CoV Urbani: unit not given here.

Experiment [2] relates to antibodies in sera from SARS patients (sera 1a, 1b, 2, 6, 37, 62, London, SARS-yellow, SARS-green). The experiment is classed as binding, human. Set-up: Binding of serum 6 to linear peptides of protein X1 of SARS-CoV Urbani / Binding of serum 37 to linear peptides of protein X1 of SARS-CoV Urbani / Binding of serum 6 to looped/cyclic peptide (PEPSCAN-ELISA) / Binding of serum 37 to looped/cyclic peptide (PEPSCAN-ELISA) / Binding of serum 37 to looped/cyclic peptides of protein X1 of SARS-CoV Urbani / Binding of serum 6 to linear peptides of protein X2 / Binding of serum 37 to linear peptides of protein X2 / Binding of serum 37 to looped/cyclic peptides of protein X2 of SARS-CoV Urbani / Binding of serum 6 to linear peptides of protein M of SARS-CoV Urbani / Binding of serum 37 to linear peptides of protein M of SARS-CoV Urbani / Binding of serum 6 to looped/cyclic peptides of protein M of SARS-CoV Urbani / Binding of serum 37 to looped/cyclic peptides of protein M of SARS-CoV Urbani / Binding of serum 6 to linear peptides of protein X3 of SARS-CoV Urbani / Binding of serum 37 to linear peptides of protein X3 of SARS-CoV Urbani / Binding of serum 37 to looped/cyclic peptides of protein X3 of SARS-CoV Urbani / Binding of serum 6 to linear peptides of protein X4 of SARS-CoV Urbani / Binding of serum 37 to linear peptides of protein X4 of SARS-CoV Urbani / Binding of serum 37 to looped/cyclic peptides of protein X4 of SARS-CoV Urbani / Binding of serum 6 to linear peptides of protein X5 of SARS-CoV Urbani / Binding of serum 37 to linear peptides of protein X5 of SARS-CoV Urbani / Binding of serum 37 to looped/cyclic peptides of protein X5 of SARS-CoV Urbani / Binding of serum 6 to linear peptides of protein N of SARS-CoV Urbani / Binding of serum 37 to linear peptides of protein N of SARS-CoV Urbani / Binding of serum 6 to linear peptide (PEPSCAN-ELISA) / Binding of serum 1a to looped/cyclic peptides of protein N of SARS-CoV Urbani / Binding of serum 1b to looped/cyclic peptides of protein N of SARS-CoV Urbani / Binding of serum 2 to looped/cyclic peptides of protein N of SARS-CoV Urbani / Binding of serum 6 to looped/cyclic peptides of protein N of SARS-CoV Urbani / Binding of serum 37 to looped/cyclic peptides of protein N of SARS-CoV Urbani / Binding of serum 62 to looped/cyclic peptides of protein N of SARS-CoV Urbani / Binding of serum London to looped/cyclic peptides of protein N of SARS-CoV Urbani / Binding of serum SARS-green to looped/cyclic peptides of protein N of SARS-CoV Urbani: unit not given here.

Experiment [3] relates to rabbit serum obtained by immunizing a rabbit with the SARS-CoV strain Frankfurt 1. The experiment is classed as binding. Also noted: Binding of a rabbit serum to linear peptides / Binding of a rabbit serum to looped peptides / Rabbit serum linear peptides / Rabbit serum looped peptides / Binding of a rabbit serum to linear peptides of protein N of SARS-CoV Urbani (Rabbit serum linear peptides) / Binding of a rabbit serum to looped/cyclic peptides of protein N of SARS-CoV Urbani (Rabbit serum looped peptides): unit not given here.

Experiment [4] has as its system recombinant human anti-SARS-CoV antibody 03-018. The experiment is classed as binding. Also noted: Binding of antibody 03-018 to linear peptides of the N protein of SARS-CoV Urbani / Binding of antibody 03-018 to looped/cyclic peptides of the N protein of SARS-CoV Urbani: unit not given here.
Experiment [5] has as its target SARS-CoV preparation (Frankfurt 1 strain) (SARS-CoV strain Frankfurt 1).

For the molecule YYLGTGPEASLPYGA, in experiment [1], the “Binding of Control Serum Blood-Bank to Looped peptides” value came to 0.8, the “Binding of Control serum Blood-bank to linear peptides” value is on record as 0.7, the “Binding of Control serum LUMC to linear peptides” value is 0.7 and the “Binding of Control serum LUMC to looped peptides” value turned out to be 0.8. Further, in experiment [2], the “Binding of serum 1a to linear peptides of protein N of SARS-CoV Urbani” value worked out at 0.3, the “Binding of serum 1a to looped/cyclic peptides of protein N of SARS-CoV Urbani” value was 0.4, the “Binding of serum 1b to linear peptides of protein N of SARS-CoV Urbani” value stood at 0.2 and the “Binding of serum 1b to looped/cyclic peptides of protein N of SARS-CoV Urbani” value is 0.4. Besides, in experiment [2], the “Binding of serum 2 to linear peptides of protein N of SARS-CoV Urbani” value is on record as 0.2, the “Binding of serum 2 to looped/cyclic peptides of protein N of SARS-CoV Urbani” value is reported as 0.4, the “Binding of serum 6 to linear peptides of protein N of SARS-CoV Urbani” value is 0.2 and the “Binding of serum 6 to looped/cyclic peptides of protein N of SARS-CoV Urbani” value was determined as 0.3. Moreover, in experiment [2], the “Binding of serum 37 to linear peptides of protein N of SARS-CoV Urbani” value came out at 0.7, the “Binding of serum 37 to looped/cyclic peptides of protein N of SARS-CoV Urbani” value is 0.9, the “Binding of serum 62 to linear peptides of protein N of SARS-CoV Urbani” value is 0.7 and the “Binding of serum 62 to looped/cyclic peptides of protein N of SARS-CoV Urbani” value was 0.7. Moreover, in experiment [2], the “Binding of serum London to linear peptides of protein N of SARS-CoV Urbani” value came out at 0.4, the “Binding of serum London to looped/cyclic peptides of protein N of SARS-CoV Urbani” value amounted to 0.5, the “Binding of serum SARS-green to linear peptides of protein N of SARS-CoV Urbani” value is on record as 0.2 and the “Binding of serum SARS-green to looped/cyclic peptides of protein N of SARS-CoV Urbani” value was 0.5. Also, in experiment [2], the “Binding of serum SARS-yellow to linear peptides of protein N of SARS-CoV Urbani” value was 0.8 and the “Binding of serum SARS-yellow to looped/cyclic peptides of protein N of SARS-CoV Urbani” value is reported as 0.7. Further, in experiment [3], the “Binding of a rabbit serum to linear peptides of protein N of SARS-CoV Urbani (Rabbit serum linear peptides)” value came out at 0.1 and the “Binding of a rabbit serum to looped/cyclic peptides of protein N of SARS-CoV Urbani (Rabbit serum looped peptides)” value stood at 0.5. Also, in experiment [4], the “Binding of antibody 03-018 to linear peptides of the N protein of SARS-CoV Urbani” value came out at 0.1 and the “Binding of antibody 03-018 to looped/cyclic peptides of the N protein of SARS-CoV Urbani” value is 0.2.
Consider YYRRATRRVRGGDGK, for which, in experiment [1], the “Binding of Control Serum Blood-Bank to Looped peptides” value was found to be 0.3, the “Binding of Control serum Blood-bank to linear peptides” value is 0.6, the “Binding of Control serum LUMC to linear peptides” value is on record as 0.6 and the “Binding of Control serum LUMC to looped peptides” value is 0.2. Besides, in experiment [2], the “Binding of serum 1a to linear peptides of protein N of SARS-CoV Urbani” value came out at 0.3, the “Binding of serum 1a to looped/cyclic peptides of protein N of SARS-CoV Urbani” value amounted to 0.2, the “Binding of serum 1b to linear peptides of protein N of SARS-CoV Urbani” value was 0.1 and the “Binding of serum 1b to looped/cyclic peptides of protein N of SARS-CoV Urbani” value was 0.1. Also, in experiment [2], the “Binding of serum 2 to linear peptides of protein N of SARS-CoV Urbani” value worked out at 0.3, the “Binding of serum 2 to looped/cyclic peptides of protein N of SARS-CoV Urbani” value stood at 0.2, the “Binding of serum 6 to linear peptides of protein N of SARS-CoV Urbani” value came to 0.3 and the “Binding of serum 6 to looped/cyclic peptides of protein N of SARS-CoV Urbani” value turned out to be 0.1. In experiment [2], the “Binding of serum 37 to linear peptides of protein N of SARS-CoV Urbani” value was found to be 0.7, the “Binding of serum 37 to looped/cyclic peptides of protein N of SARS-CoV Urbani” value came to 0.4, the “Binding of serum 62 to linear peptides of protein N of SARS-CoV Urbani” value was determined as 0.6 and the “Binding of serum 62 to looped/cyclic peptides of protein N of SARS-CoV Urbani” value was determined as 0.2. For the same molecule, in experiment [2], the “Binding of serum London to linear peptides of protein N of SARS-CoV Urbani” value was found to be 0.5, the “Binding of serum London to looped/cyclic peptides of protein N of SARS-CoV Urbani” value came to 0.2, the “Binding of serum SARS-green to linear peptides of protein N of SARS-CoV Urbani” value stood at 0.3 and the “Binding of serum SARS-green to looped/cyclic peptides of protein N of SARS-CoV Urbani” value was found to be 0.0. In addition, in experiment [2], the “Binding of serum SARS-yellow to linear peptides of protein N of SARS-CoV Urbani” value came to 0.5 and the “Binding of serum SARS-yellow to looped/cyclic peptides of protein N of SARS-CoV Urbani” value amounted to 0.1. Further, in experiment [3], the “Binding of a rabbit serum to linear peptides of protein N of SARS-CoV Urbani (Rabbit serum linear peptides)” value was found to be 0.2 and the “Binding of a rabbit serum to looped/cyclic peptides of protein N of SARS-CoV Urbani (Rabbit serum looped peptides)” value is 0.0. Also, in experiment [4], the “Binding of antibody 03-018 to linear peptides of the N protein of SARS-CoV Urbani” value worked out at 0.1 and the “Binding of antibody 03-018 to looped/cyclic peptides of the N protein of SARS-CoV Urbani” value stood at 0.2.

B1: SC03-012 (scFv)
scFv: AMAQVQLVQSGAEVKKPGASVKVSCKASGYTFTSYGISWVRQAPGQGLEWMGWISAYNGNTNYAQKLQGRVTMTTDTSTSTAYMELSSLRSDDTAVYYCARMFRKSSFDSWGQGTLVTVSRGGGGSGGGGSGGGGSSELTQDPAVSVALGQTVRITCQGDSLRSYYASWYQQKPGQAPVLVIYGKNNRPSGIPDRFSGSSSGNTASLTITGAQAEDEADYYCNSRDSSGNHVVFGGGTKLTVLGAAA
Consider B1, for which the OD492nm in experiment [5] amounted to 0.495 OD492nm.
